Reference: patent publication US11274082B2, “Tead inhibitors and uses thereof” (Ikena Oncology, Inc., priority 2019, dated 2022)

What was measured:
TEAD = TEAD reporter assay (Hippo Pathway TEAD Reporter - MCF7 cell line, luciferase); type: cell-based; conditions: Homo sapiens; TEAD Reporter - MCF7 cells; read-out: TEAD Reporter Assay EC50
From the text: TEAD inhibition can be assayed using Hippo Pathway TEAD Reporter—MCF7 Cell Line (BPS Bioscience, Catalog #: 60618).
The TEAD Reporter—MCF7 cell line contains the firefly luciferase gene under the control of TEAD responsive elements stably integrated into the human breast cancer cell line, MCF7. Inside the cells, basal unphosphorylated YAP/TAZ remains in the nucleus and induces the constitutive expression of luciferase reporter. The cell line is validated for the inhibition of the expression of luciferase reporter by the activators of the Hippo pathway.
• 1) Harvest TEAD Reporter—MCF7 cells from culture in growth medium and seed cells at a density of 35,000 cells per well into white clear-bottom 96-well microplate in 45 μl of assay medium. • 2) Incubate cells at 37° C. in a CO2 incubator for overnight. • 3) Dilute the activators (H2O2 or okadaic acid) stock in assay medium. Add 5 μl of diluted activators to the wells. The final concentration of DMSO in assay medium is 0.1%. • 4) Add 5 μl of assay medium with same concentration of DMSO without activator to control wells. • 5) Add 50 μl of assay medium with DMSO to cell-free control wells (for determining background luminescence). • 6) Set up each treatment in at least triplicate. • 7) Incubate cells at 37° C. in a CO2 incubator for 5-6 hours. • 8) Perform luciferase assay using the ONE-Step™ Luciferase Assay System following the protocol provided: Add 100 μl of ONE-Step™ Luciferase reagent per well and rock at room temperature for ˜15 minutes. Measure luminescence using a luminometer. • 9) Data Analysis: Obtain the background-subtracted luminescence by subtracting the average background luminescence (cell-free control wells) from the luminescence reading of all wells.
(§1) Certain compounds were tested in TEAD reporter assay, and in H226 and H28. A: EC50<0.1 uM; B: 0.1 uM≤EC50≤0.5 uM; C: EC50>0.5 uM.

H226 = test: Anti-proliferation assay in H226 cells; type: cell-based; conditions: Homo sapiens, NCI-H226; H226 cells; read-out: H226 EC50
Method: as §1
Individual cell lines were grown in medium according to supplier instructions and seeded into 96-well plates at a density that ensured logarithmic growth over 72 hours. TEAD inhibitor compounds were administered to cells at a top concentration of 10 μm and subsequently a 10 point 3-fold serial dilution was conducted. After 72 hours, proliferation was quantified using Cell TITERGLO™ (Promega, Inc.) and compared to vehicle control. IC50 and EC50 values were generated using XLFit curve fitting software.

| EC50 (TEAD) | EC50 (H226) | Structure (SMILES) |
| --- | --- | --- |
| < 0.1 µM | < 0.1 µM | CNS(=O)(=O)c1ccc(Nc2cc(C(F)(F)F)ccn2)c(-c2cn(C3CC3)cn2)c1 [I-54, 3-(1-Cyclopropylimidazol-4-yl)-N-methyl-4-[[4-(trifluoromethyl)-2-pyridyl]amino]benzenesulfonamide] |
| 0.1 to 0.5 µM | < 0.1 µM | CNS(=O)(=O)c1ccc(Nc2cc(C(F)(F)F)ccn2)c(-c2cn(C(C)C)cn2)c1 [I-55, 3-(1-Isopropylimidazol-4-yl)-N-methyl-4-[[4-(trifluoromethyl)-2-pyridyl]amino]benzenesulfonamide] |
| 0.1 to 0.5 µM | 0.1 to 0.5 µM | CNS(=O)(=O)c1ccc(N[C@H](C)c2ccc(C(F)(F)F)cc2)c(-c2cn(C)cn2)c1 [I-56, N-Methyl-3-(1-methylimidazol-4-yl)-4-[[(1R)-1-[4-(trifluoromethyl)phenyl]ethyl]amino]benzenesulfonamide] |
| > 0.5 µM | > 0.5 µM | CNS(=O)(=O)c1ccc(N[C@@H](C)c2ccc(C(F)(F)F)cc2)c(-c2cn(C)cn2)c1 [I-57, N-Methyl-3-(1-methylimidazol-4-yl)-4-[[(1S)-1-[4-(trifluoromethyl)phenyl]ethyl]amino]benzenesulfonamide] |
| 0.1 to 0.5 µM | 0.1 to 0.5 µM | CNS(=O)(=O)c1ccc(NCc2ccc(OC(F)(F)F)cc2)c(-c2cn(C)cn2)c1 [I-60, N-Methyl-3-(1-methyl-1H-imidazol-4-yl)-4-((4-(trifluoromethoxy)benzyl)amino)benzenesulfonamide] |
| > 0.5 µM | 0.1 to 0.5 µM | CNS(=O)(=O)c1ccc(NCc2ccccc2)c(-c2nnc(C)o2)c1 [I-61, 4-(Benzylamino)-N-methyl-3-(5-methyl-1,3,4-oxadiazol-2-yl)benzenesulfonamide] |
| 0.1 to 0.5 µM | 0.1 to 0.5 µM | CNS(=O)(=O)c1ccc(Nc2cc(C(F)(F)F)ccn2)c(-c2nnc(C)o2)c1 [I-62, N-Methyl-3-(5-methyl-1,3,4-oxadiazol-2-yl)-4-[[4-(trifluoromethyl)-2-pyridyl]amino]benzenesulfonamide] |
| 0.1 to 0.5 µM | 0.1 to 0.5 µM | CNS(=O)(=O)c1ccc(N[C@H](C)c2cccc(C(F)(F)F)c2)c(-c2cn(C)cn2)c1 [I-63, N-Methyl-3-(1-methylimidazol-4-yl)-4-[[(1R)-1-[3-(trifluoromethyl)phenyl]ethyl]amino]benzenesulfonamide] |
| 0.1 to 0.5 µM | 0.1 to 0.5 µM | CNS(=O)(=O)c1ccc(NCc2ccc3c(c2)OCO3)c(-c2cn(C)cn2)c1 [I-64, 4-(1,3-Benzodioxol-5-ylmethylamino)-N-methyl-3-(1-methylimidazol-4-yl)benzenesulfonamide] |
| < 0.1 µM | < 0.1 µM | CCNS(=O)(=O)c1ccc(Nc2ccc(C(F)(F)F)cn2)c(-c2cn(C)cn2)c1 [I-65, N-ethyl-3-(1-methylimidazol-4-yl)-4-[[5-(trifluoromethyl)-2-pyridyl]amino]benzenesulfonamide] |
| > 0.5 µM | 0.1 to 0.5 µM | CC(C)NS(=O)(=O)c1ccc(Nc2cc(C(F)(F)F)ccn2)c(-c2cn(C)cn2)c1 [I-66, N-Isopropyl-3-(1-methylimidazol-4-yl)-4-[[4-(trifluoromethyl)-2-pyridyl]amino]benzenesulfonamide] |
| < 0.1 µM | < 0.1 µM | CNS(=O)(=O)c1ccc(Nc2ccc(C(F)(F)F)cn2)c(-c2cn(C3CCC3)cn2)c1 [I-67, 3-(1-Cyclobutylimidazol-4-yl)-N-methyl-4-[[5-(trifluoromethyl)-2-pyridyl]amino]benzenesulfonamide] |
| < 0.1 µM | < 0.1 µM | CNS(=O)(=O)c1ccc(NCc2ccc(C(F)(F)F)cc2F)c(-c2cn(C)cn2)c1 [I-68, 4-[[2-Fluoro-4-(trifluoromethyl)phenyl]methylamino]-N-methyl-3-(1-methylimidazol-4-yl)benzenesulfonamide] |
| 0.1 to 0.5 µM | < 0.1 µM | CNS(=O)(=O)c1ccc(NCc2cccc(OC(F)(F)F)c2)c(-c2cn(C)cn2)c1 [I-69, A-Methyl-3-(1-methylimidazol-4-yl)-4-[[3-(trifluoromethoxy)phenyl]methylamino]benzenesulfonamide] |
| 0.1 to 0.5 µM | < 0.1 µM | CNS(=O)(=O)c1ccc(NCc2ccc(C(F)(F)F)cn2)c(-c2cn(C)cn2)c1 [I-70, N-Methyl-3-(1-methylimidazol-4-yl)-4-[[5-(trifluoromethyl)-2-pyridyl]methylamino]benzenesulfonamide] |
| 0.1 to 0.5 µM | 0.1 to 0.5 µM | CNS(=O)(=O)c1ccc(Nc2ccc(C(F)(F)F)cn2)c(-c2cn(Cc3ccccc3)cn2)c1 [I-71, 3-(1-Benzylimidazol-4-yl)-N-methyl-4-[[5-(trifluoromethyl)-2-pyridyl]amino]benzenesulfonamide] |
| < 0.1 µM | 0.1 to 0.5 µM | CNS(=O)(=O)c1ccc(NCc2ccc3scnc3c2)c(-c2cn(C)cn2)c1 [I-72, 4-(1,3-Benzothiazol-5-ylmethylamino)-N-methyl-3-(1-methylimidazol-4-yl)benzenesulfonamide] |
| > 0.5 µM | 0.1 to 0.5 µM | CNS(=O)(=O)c1ccc(NCc2ccc3ncsc3c2)c(-c2cn(C)cn2)c1 [I-73, 4-(1,3-Benzothiazol-6-ylmethylamino)-N-methyl-3-(1-methylimidazol-4-yl)benzenesulfonamide] |
| < 0.1 µM | < 0.1 µM | CNS(=O)(=O)c1ccc(NCc2ccccc2C(F)(F)F)c(-c2cn(C)cn2)c1 [I-74, N-Methyl-3-(1-methylimidazol-4-yl)-4-[[2-(trifluoromethyl)phenyl]methylamino]benzenesulfonamide] |
| < 0.1 µM | < 0.1 µM | CNS(=O)(=O)c1ccc(Nc2ccc(C(F)(F)F)nc2)c(-c2cn(C)cn2)c1 [I-75, N-Methyl-3-(1-methylimidazol-4-yl)-4-[[6-(trifluoromethyl)-3-pyridyl]amino]benzenesulfonamide] |
| > 0.5 µM | 0.1 to 0.5 µM | CNS(=O)(=O)c1ccc(NCc2ccc(C(F)(F)F)nc2)c(-c2cn(C)cn2)c1 [I-76, N-Methyl-3-(1-methyl-1H-imidazol-4-yl)-4-(((6-(trifluoromethyl)pyridin-3-yl)methyl)amino)benzenesulfonamide] |
| > 0.5 µM | 0.1 to 0.5 µM | CNS(=O)(=O)c1ccc(Nc2ccc(C(F)(F)F)nn2)c(-c2cn(C)cn2)c1 [I-77, N-Methyl-3-(1-methylimidazol-4-yl)-4-[[6-(trifluoromethyl)pyridazin-3-yl]amino]benzenesulfonamide] |
| < 0.1 µM | < 0.1 µM | CNS(=O)(=O)c1ccc(Nc2ncc(C(F)(F)F)cn2)c(-c2cn(C)cn2)c1 [I-78, N-Methyl-3-(1-methylimidazol-4-yl)-4-[[5-(trifluoromethyl)pyrimidin-2-yl]amino]benzenesulfonamide] |
| 0.1 to 0.5 µM | < 0.1 µM | CNS(=O)(=O)c1ccc(Nc2ccc(C3CC3)cn2)c(-c2cn(C)cn2)c1 [I-79, 4-[(5-Cyclopropyl-2-pyridyl)amino]-N-methyl-3-(1-methylimidazol-4-yl)benzenesulfonamide] |
| < 0.1 µM | < 0.1 µM | CNS(=O)(=O)c1ccc(Nc2ccc(C(C)(C)C)cn2)c(-c2cn(C)cn2)c1 [I-80, 4-[(5-tert-Butyl-2-pyridyl)amino]-N-methyl-3-(1-methylimidazol-4-yl)benzenesulfonamide] |
| < 0.1 µM | < 0.1 µM | CNS(=O)(=O)c1ccc(Nc2ccc(C(F)(F)F)cn2)c(-c2cn(Cc3ccccc3F)cn2)c1 [I-81, 3-[1-[(2-Fluorophenyl)methyl]imidazol-4-yl]-N-methyl-4-[[5-(trifluoromethyl)-2-pyridyl]amino]benzenesulfonamide] |
| < 0.1 µM | < 0.1 µM | CNS(=O)(=O)c1ccc(Nc2ccc(C(F)(F)F)cc2)c(-c2cn(C)cn2)c1 [I-82, N-Methyl-3-(1-methyl-1H-imidazol-4-yl)-4-((4-(trifluoromethyl)phenyl)amino)benzenesulfonamide] |
| 0.1 to 0.5 µM | < 0.1 µM | CNS(=O)(=O)c1ccc(N[C@@H](C)c2cccc(C(F)(F)F)c2)c(-c2cn(C)cn2)c1 [I-83, N-Methyl-3-(1-methylimidazol-4-yl)-4-[[(1S)-1-[3-(trifluoromethyl)phenyl]ethyl]amino]benzenesulfonamide] |
| < 0.1 µM | < 0.1 µM | CNS(=O)(=O)c1ccc(Nc2ccc(OC(F)(F)F)cn2)c(-c2cn(C)cn2)c1 [I-84, N-Methyl-3-(1-methylimidazol-4-yl)-4-[[5-(trifluoromethoxy)-2-pyridyl]amino]benzenesulfonamide] |
